Holding throughout (experiment): fluorogenic substrate
Assay type in all cases: biochemical

For assay [1], the target named is T1, 20S proteasome β5 subunit (chymotrypsin-like activity) (Homo sapiens, UniProt P28074).
T1 sequence (P28074 60-263): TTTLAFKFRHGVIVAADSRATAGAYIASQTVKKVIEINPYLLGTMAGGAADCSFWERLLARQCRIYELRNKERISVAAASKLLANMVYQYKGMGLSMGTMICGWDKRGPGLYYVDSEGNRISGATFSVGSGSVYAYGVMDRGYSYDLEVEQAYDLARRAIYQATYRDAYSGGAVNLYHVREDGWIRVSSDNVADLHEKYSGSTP

Assay [2] concerns the target T2, 20S proteasome β1 subunit (PGPH activity) (Homo sapiens, UniProt P28072).
T2 sequence (P28072 35-239): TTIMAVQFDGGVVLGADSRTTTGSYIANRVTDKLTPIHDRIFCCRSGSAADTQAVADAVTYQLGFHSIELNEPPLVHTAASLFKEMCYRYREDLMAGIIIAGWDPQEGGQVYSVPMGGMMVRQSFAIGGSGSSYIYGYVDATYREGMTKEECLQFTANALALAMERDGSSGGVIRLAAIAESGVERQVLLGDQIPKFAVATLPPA

Assay [3] concerns the target T2, 20S proteasome β1 subunit (PGPH activity). The source holds these as a separate data set.

Experimental findings from publication PMC3763447 (Cell Death & Disease, 2013) are described below.

Broadly, the IC50 is the concentration that inhibits the measured activity by half.

Peptide text beside a SMILES is read from it. * marks the point of attachment. Cbz = O=C(OCc1ccccc1)*

Consider `COc1ccc(O)c2c1Oc1cccc(c1)CCc1ccc(O)c(c1)Oc1ccc(cc1)CC2` [Mar, marchantin M], for which the IC50 stood at 6.99 µM in assay [1] and 5.33 µM in assay [2].
In the case of `CC(C)C[C@@H](C=O)NC(=O)[C@H](CC(C)C)NC(=O)[C@H](CC(C)C)NC(=O)OCc1ccccc1` [MG132] (Cbz-Leu-Leu-Leu-aldehyde), the “fluorogenic substrate (Bz-LLE-AMC) assay with purified 20S proteasome” value in assay [3] was “MG132, a known proteasome inhibitor for a positive control, showed more potent inhibition on the proteasome ChT-L and PGPH activities”.
